Results taken from patent US20170349550A1, “ACTIVE COMPOUND COMBINATIONS” (BAYER CROPSCIENCE AKTIENGESELLSCHAFT, priority 2014, published 2017).
Several values for one entry are separate records, joined by “and”; a condition that tells them apart may be missing. Equal entries are not always repeated. Where two headings read alike, the source gives them in different places.

Tests used:
[1] = test system: Blumeria graminis f.sp. hordei; assay: in vivo preventive Blumeria test (barley); conditions: 7 days after inoculation
Fusarium graminearum = type: in vivo; conditions: barley, 5 days after inoculation
Puccinia triticina = assay: in vivo preventive Puccinia triticina test (wheat); conditions: 8 days after inoculation
Experimental: After the spray coating has been dried, the plants are sprayed with a spore suspension of Puccinia triticina.
(§1) The test is evaluated 8 days after the inoculation.

[2] = test system: Fusarium nivale (var. majus); assay: in vivo preventive Fusarium nivale (var. majus) test (wheat); conditions: 12.5 ppm a.i., 5 days after inoculation
Experimental: After the spray coating has been dried, the plants are slightly injured by using a sandblast and afterwards they are sprayed with a conidia suspension of Fusarium nivale (var. majus). The plants are placed in the greenhouse under a translucent incubation cabinet at a temperature of approximately 10° C. and a relative atmospheric humidity of approximately 100%.
The test is evaluated 5 days after the inoculation.

Septoria tritici = assay: in vivo preventive Septoria tritici test (wheat); conditions: 21 days after inoculation
Experimental: After the spray coating has been dried, the plants are sprayed with a spore suspension of Septoria tritici. […] The plants are placed in the greenhouse at a temperature of approximately 15° C. and a relative atmospheric humidity of approximately 80%.
The test is evaluated 21 days after the inoculation.

Leptosphaeria nodorum = assay: in vivo preventive Leptosphaeria nodorum test (wheat); conditions: 8 days after inoculation
Experimental: After the spray coating has been dried, the plants are sprayed with a spore suspension of Leptosphaeria nodorum. […] The plants are placed in the greenhouse at a temperature of approximately 25° C. and a relative atmospheric humidity of approximately 80%.
as §1

Sphaerotheca fuliginea = assay: in vivo preventive test on Sphaerotheca test (cucumbers); conditions: 7 days after inoculation
Experimental: After the spray coating has dried on, the plants are inoculated with an aqueous spore suspension of Sphaerotheca fuliginea. The plants are then placed in a greenhouse at approximately 23° C. and a relative atmospheric humidity of approximately 70%.
(§2) The test is evaluated 7 days after the inoculation.

Alternaria solani = assay: in vivo preventive test on Alternaria test (tomatoes); conditions: 3 days after inoculation
Experimental: After the spray coating has dried on, the plants are inoculated with an aqueous spore suspension of Alternaria solani.
The test is evaluated 3 days after the inoculation.

Venturia inaequalis = assay: in vivo preventive test on Venturia test (apples); conditions: 10 days after inoculation
Experimental: The plants are then placed in a greenhouse at approximately 21° C. and a relative atmospheric humidity of approximately 90%.
The test is evaluated 10 days after the inoculation.

Botrytis cinerea = assay: in vivo preventive test on Botrytis test (beans); conditions: size of lesions 2 days after inoculation
Experimental: Solvent: 24.5 parts by weight of acetone • 24.5 parts by weight of dimethylacetamide Emulsifier: 1 part by weight of alkylaryl polyglycol ether
After the spray coating has dried on, 2 small pieces of agar covered with growth of Botrytis cinerea are placed on each leaf. The inoculated plants are placed in a darkened chamber at 20° C. and a relative atmospheric humidity of 100%.
2 days after the inoculation, the size of the lesions on the leaves is evaluated.

Phakopsora pachyrhizi = assay: in vivo preventive test on Phakopsora test (soybeans); conditions: 7 days after inoculation
Experimental: After the spray coating has dried on, the plants are inoculated with an aqueous spore suspension of the causal agent of soybean rust (Phakopsora pachyrhizi) and stay for 24 h without light in an incubation cabinet at approximately 24° C. and a relative atmospheric humidity of 95%. The plants remain in the incubation cabinet at approximately 24° C. and a relative atmospheric humidity of approximately 80% and a day/night interval of 12 h.
as §2

Uromyces appendiculatus = assay: in vivo preventive test on Uromyces test (beans); conditions: 10 days after inoculation
Experimental: The plants are then placed in a greenhouse at approximately 21° C. and a relative atmospheric humidity of approximately 90%. The test is evaluated 10 days after the inoculation.

Q: Which results are given for `Fc1ccc([C@]2(Cn3cncn3)O[C@H]2c2ccccc2Cl)cc1` (racemic) [1.12, epoxiconazole]?
A: Efficacy in % found ([1]; 12.5 ppm a.i.): 14%; Efficacy in % found ([1]; 25 ppm a.i.): 30%; Efficacy in % found (Fusarium graminearum; 50 ppm a.i.): 0%; Efficacy in % found (Puccinia triticina; 25 ppm a.i.): 40%; Efficacy in % found [2]: 13%; Efficacy in % found (Septoria tritici; 25 ppm a.i.): 0%; Efficacy in % found (Septoria tritici; 50 ppm a.i.): 63% and 33%; Efficacy in % found (Leptosphaeria nodorum; 25 ppm a.i.): 43%; Efficacy in % found (Leptosphaeria nodorum; 50 ppm a.i.): 57%

Q: With `OC(Cn1cncn1)(c1ccc(F)cc1)c1ccccc1F` (stereo not drawn) [1.22, flutriafol] as the molecule, how does the “Efficacy in % found” value (Sphaerotheca fuliginea; 1 ppm a.i.) read?
A: The value was 24%.

Q: And the “Efficacy in % found” value (Alternaria solani; 0.25 ppm a.i.)?
A: Its value is 0%.

Q: What about the “Efficacy in % found” value (Alternaria solani; 0.5 ppm a.i.) of the same molecule?
A: Its value is 0%.

Q: And the “Efficacy in % found” value (Alternaria solani; 1 ppm a.i.)?
A: The value was 0%.

Q: And the “Efficacy in % found” value (Venturia inaequalis; 0.25 ppm a.i.)?
A: The value was 0%.

Q: What about the “Efficacy in % found” value (Venturia inaequalis; 0.5 ppm a.i.) of the same molecule?
A: Its value is 0%.

Q: And the “Efficacy in % found” value (Venturia inaequalis; 1 ppm a.i.)?
A: The value was 8%.

Q: And the “Efficacy in % found” value (Botrytis cinerea; 0.25 ppm a.i.)?
A: Its value is 0%.

Q: What about the “Efficacy in % found” value (Botrytis cinerea; 0.5 ppm a.i.) of the same molecule?
A: Its value is 15%.

Q: And the “Efficacy in % found” value (Botrytis cinerea; 1 ppm a.i.)?
A: Its value is 30%.

Q: And the “Efficacy in % found” value (Phakopsora pachyrhizi; 0.25 ppm a.i.)?
A: Its value is 0%.

Q: What about the “Efficacy in % found” value (Phakopsora pachyrhizi; 1 ppm a.i.) of the same molecule?
A: Its value is 0%.

Q: Which results are given for `CC1(C)CCC(Cc2ccc(Cl)cc2)C1(O)Cn1cncn1` (stereo not drawn) [1.30, metconazole]?
A: Efficacy in % found ([1]; 25 ppm a.i.): 93% and 80%; Efficacy in % found ([1]; 50 ppm a.i.): 93%; Efficacy in % found (Fusarium graminearum; 50 ppm a.i.): 14%; Efficacy in % found (Puccinia triticina; 12.5 ppm a.i.): 0%; Efficacy in % found (Puccinia triticina; 25 ppm a.i.): 20%; Efficacy in % found (Puccinia triticina; 50 ppm a.i.): 10%; Efficacy in % found (Septoria tritici; 25 ppm a.i.): 17%; Efficacy in % found (Septoria tritici; 50 ppm a.i.): 33%; Efficacy in % found (Leptosphaeria nodorum; 25 ppm a.i.): 0%

Q: Which results are given for `OC(Cc1ccccc1Cl)(Cn1nc[nH]c1=S)C1(Cl)CC1` (stereo not drawn) [1.41, prothioconazole]?
A: Efficacy in % found (Alternaria solani; 0.5 ppm a.i.): 15% and 8%; Efficacy in % found (Alternaria solani; 1 ppm a.i.): 15%; Efficacy in % found (Venturia inaequalis; 1 ppm a.i.): 0%; Efficacy in % found (Uromyces appendiculatus; 0.25 ppm a.i.): 0%; Efficacy in % found (Uromyces appendiculatus; 1 ppm a.i.): 0%; Efficacy in % found (Phakopsora pachyrhizi; 0.25 ppm a.i.): 0%; Efficacy in % found (Phakopsora pachyrhizi; 0.5 ppm a.i.): 0%

Q: How did the “Efficacy in % found” value (Alternaria solani; 0.25 ppm a.i.) turn out when `CC(C)(C)C(O)(CCc1ccc(Cl)cc1)Cn1cncn1` (stereo not drawn) [1.47, tebuconazole] was run?
A: The value was 0%.

Q: And the “Efficacy in % found” value (Alternaria solani; 0.5 ppm a.i.)?
A: The value was 8% and 0%.

Q: And the “Efficacy in % found” value (Uromyces appendiculatus; 0.25 ppm a.i.)?
A: The value was 0%.

Q: And the “Efficacy in % found” value (Uromyces appendiculatus; 0.5 ppm a.i.)?
A: The value was 0%.

Q: What about the “Efficacy in % found” value (Uromyces appendiculatus; 1 ppm a.i.) of the same molecule?
A: The value was 0%.

Q: And the “Efficacy in % found” value (Phakopsora pachyrhizi; 0.25 ppm a.i.)?
A: The value was 0%.

Q: What about the “Efficacy in % found” value (Phakopsora pachyrhizi; 0.5 ppm a.i.) of the same molecule?
A: Its value is 0%.

Q: How did the “Efficacy in % found” value ([1]; 25 ppm a.i.) turn out when `CCC1CC(C)(C)c2cccc(NC(=O)c3cccnc3C(F)F)c21` (stereo not drawn) [(I-3), 2-(difluoromethyl)-N-(3-ethyl-1,1-dimethyl-2,3-dihydro-1H-inden-4-yl)nicotinamide] was run?
A: Its value is 0%.

Q: And the “Efficacy in % found” value (Fusarium graminearum; 25 ppm a.i.)?
A: Its value is 0%.

Q: What about the “Efficacy in % found” value (Sphaerotheca fuliginea; 0.5 ppm a.i.) of the same molecule?
A: Its value is 0%.

Q: What about the “Efficacy in % found” value (Alternaria solani; 0.5 ppm a.i.) of the same molecule?
A: Its value is 23%.

Q: And the “Efficacy in % found” value (Venturia inaequalis; 1 ppm a.i.)?
A: Its value is 11%.

Q: And the “Efficacy in % found” value (Uromyces appendiculatus; 0.25 ppm a.i.)?
A: Its value is 90%.

Q: What about the “Efficacy in % found” value (Septoria tritici; 100 ppm a.i.) of the same molecule?
A: Its value is 83%.

Q: And the “Efficacy in % found” value (Leptosphaeria nodorum; 25 ppm a.i.)?
A: The value was 0%.

Q: What about the “Efficacy in % found” value (Leptosphaeria nodorum; 50 ppm a.i.) of the same molecule?
A: Its value is 14%.

Q: And the “Efficacy in % found” value (Leptosphaeria nodorum; 100 ppm a.i.)?
A: Its value is 43%.
